Results published in paper PMC8799717, “Pharmacological targeting PIKfyve and tubulin as an effective treatment strategy for double-hit lymphoma” (Cell Death Discovery, 2022).

Legend:
Test in all cases: biochemical
Set-up in all cases: KINOMEscan active-site-directed competition binding panel, 468 kinases, percent of DMSO control at 1 uM
Settings in all cases: KINOMEscan binding, percent of DMSO control; read-out: Ctrl%
PIK3CA(E542K) = PIK3CA(E542K) (Homo sapiens, UniProt P42336, E542K)
ACVRL1 = ACVRL1 (Homo sapiens, UniProt P37023)
EGFR(S752-I759del) = EGFR(S752-I759del) (Homo sapiens, UniProt P00533, DEL752-759)
TAOK3 = TAOK3 (Homo sapiens, UniProt Q9H2K8)
CSNK1E = CSNK1E (Homo sapiens, UniProt P49674)
[1] = target: T1, ABL1(F317I)-nonphosphorylated (Homo sapiens, UniProt P00519, F317I)
T1 construct: nonphosphorylated

FGFR4 = FGFR4 (Homo sapiens, UniProt P22455)
NEK7 = NEK7 (Homo sapiens, UniProt Q8TDX7)
EPHB2 = EPHB2 (Homo sapiens, UniProt P29323)
GRK2 = GRK2 (Homo sapiens, UniProt P25098)
YES = target: T2, YES (Homo sapiens, UniProt P07947)
T2 construct: gene YES1

ASK2 = target: T3, ASK2 (Homo sapiens, UniProt O95382)
T3 construct: gene MAP3K6

KIT(V559D) = KIT(V559D) (Homo sapiens, UniProt P10721, V559D)
EPHA7 = EPHA7 (Homo sapiens, UniProt Q15375)
ADCK3 = target: T4, ADCK3 (Homo sapiens, UniProt Q8NI60)
T4 construct: gene COQ8A

JNK2 = target: T5, JNK2 (Homo sapiens, UniProt P45984)
T5 construct: gene MAPK9

FLT3(K663Q) = FLT3(K663Q) (Homo sapiens, UniProt P36888, K663Q)
TRKB = target: T6, TRKB (Homo sapiens, UniProt Q16620)
T6 construct: gene NTRK2

PRKCH = PRKCH (Homo sapiens, UniProt P24723)
FLT3(D835V) = FLT3(D835V) (Homo sapiens, UniProt P36888, D835V)
MAP3K2 = MAP3K2 (Homo sapiens, UniProt Q9Y2U5)
EPHB3 = EPHB3 (Homo sapiens, UniProt P54753)
[2] = target: T7, ABL1(H396P)-phosphorylated (Homo sapiens, UniProt P00519, H396P)
T7 construct: phosphorylated

FES = FES (Homo sapiens, UniProt P07332)

FGFR4, sequence (P22455 whole entry): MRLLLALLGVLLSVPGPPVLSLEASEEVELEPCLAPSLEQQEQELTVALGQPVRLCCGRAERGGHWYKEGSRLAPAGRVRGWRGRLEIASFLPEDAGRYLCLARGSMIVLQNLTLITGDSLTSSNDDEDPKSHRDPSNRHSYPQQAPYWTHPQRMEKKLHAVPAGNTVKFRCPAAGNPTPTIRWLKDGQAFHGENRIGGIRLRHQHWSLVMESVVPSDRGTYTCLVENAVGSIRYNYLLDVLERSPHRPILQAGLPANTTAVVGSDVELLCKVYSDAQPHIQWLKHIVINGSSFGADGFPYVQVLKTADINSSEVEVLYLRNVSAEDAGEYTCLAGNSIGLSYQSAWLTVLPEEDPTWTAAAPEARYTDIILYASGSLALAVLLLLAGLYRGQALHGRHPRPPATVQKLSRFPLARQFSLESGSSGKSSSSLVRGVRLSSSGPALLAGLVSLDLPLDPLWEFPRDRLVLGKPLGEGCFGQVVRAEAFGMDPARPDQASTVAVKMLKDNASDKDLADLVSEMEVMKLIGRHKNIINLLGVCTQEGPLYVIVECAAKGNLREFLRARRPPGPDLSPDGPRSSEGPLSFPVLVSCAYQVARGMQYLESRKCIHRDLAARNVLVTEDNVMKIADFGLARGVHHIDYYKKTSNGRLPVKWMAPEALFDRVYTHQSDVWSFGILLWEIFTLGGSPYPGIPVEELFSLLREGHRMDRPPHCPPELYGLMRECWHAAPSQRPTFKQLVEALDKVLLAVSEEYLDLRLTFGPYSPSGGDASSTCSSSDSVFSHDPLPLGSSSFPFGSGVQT
ACVRL1, sequence (P37023 whole entry): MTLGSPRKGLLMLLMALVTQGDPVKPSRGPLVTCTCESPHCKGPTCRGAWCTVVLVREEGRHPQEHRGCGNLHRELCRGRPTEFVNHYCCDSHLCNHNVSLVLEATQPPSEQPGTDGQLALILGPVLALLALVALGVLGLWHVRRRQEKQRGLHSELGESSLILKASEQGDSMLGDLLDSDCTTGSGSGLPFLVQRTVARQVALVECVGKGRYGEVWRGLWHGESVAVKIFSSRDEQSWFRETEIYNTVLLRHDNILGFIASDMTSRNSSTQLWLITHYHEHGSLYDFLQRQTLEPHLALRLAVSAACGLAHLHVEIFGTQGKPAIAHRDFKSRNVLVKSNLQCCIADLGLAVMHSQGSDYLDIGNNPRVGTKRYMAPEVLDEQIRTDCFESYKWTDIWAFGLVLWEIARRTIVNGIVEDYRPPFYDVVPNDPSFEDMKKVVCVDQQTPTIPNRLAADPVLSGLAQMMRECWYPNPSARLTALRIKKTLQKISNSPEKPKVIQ
TAOK3, sequence (Q9H2K8 whole entry): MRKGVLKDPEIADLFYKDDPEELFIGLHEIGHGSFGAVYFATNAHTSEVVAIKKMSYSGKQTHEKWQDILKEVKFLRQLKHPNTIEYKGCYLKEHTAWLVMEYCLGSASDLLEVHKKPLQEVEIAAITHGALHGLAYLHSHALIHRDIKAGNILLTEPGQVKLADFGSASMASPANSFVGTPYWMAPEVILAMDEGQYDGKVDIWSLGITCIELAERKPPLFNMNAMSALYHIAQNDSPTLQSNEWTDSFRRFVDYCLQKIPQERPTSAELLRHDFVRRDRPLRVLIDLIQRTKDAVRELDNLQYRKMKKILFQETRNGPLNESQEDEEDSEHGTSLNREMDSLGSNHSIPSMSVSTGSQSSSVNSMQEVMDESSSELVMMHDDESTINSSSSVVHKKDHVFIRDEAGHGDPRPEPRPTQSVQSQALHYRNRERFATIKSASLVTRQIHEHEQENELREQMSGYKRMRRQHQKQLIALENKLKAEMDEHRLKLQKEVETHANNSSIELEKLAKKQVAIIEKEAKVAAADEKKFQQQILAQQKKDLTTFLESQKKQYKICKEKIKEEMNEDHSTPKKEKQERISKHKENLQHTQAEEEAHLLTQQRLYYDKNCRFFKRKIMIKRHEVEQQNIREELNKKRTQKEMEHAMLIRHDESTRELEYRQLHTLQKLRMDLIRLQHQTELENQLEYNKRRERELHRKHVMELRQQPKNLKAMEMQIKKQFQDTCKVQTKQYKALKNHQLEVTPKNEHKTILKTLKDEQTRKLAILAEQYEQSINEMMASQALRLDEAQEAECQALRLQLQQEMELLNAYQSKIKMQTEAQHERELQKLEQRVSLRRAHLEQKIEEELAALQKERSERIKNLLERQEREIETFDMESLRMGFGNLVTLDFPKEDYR
T2 sequence (P07947 whole entry): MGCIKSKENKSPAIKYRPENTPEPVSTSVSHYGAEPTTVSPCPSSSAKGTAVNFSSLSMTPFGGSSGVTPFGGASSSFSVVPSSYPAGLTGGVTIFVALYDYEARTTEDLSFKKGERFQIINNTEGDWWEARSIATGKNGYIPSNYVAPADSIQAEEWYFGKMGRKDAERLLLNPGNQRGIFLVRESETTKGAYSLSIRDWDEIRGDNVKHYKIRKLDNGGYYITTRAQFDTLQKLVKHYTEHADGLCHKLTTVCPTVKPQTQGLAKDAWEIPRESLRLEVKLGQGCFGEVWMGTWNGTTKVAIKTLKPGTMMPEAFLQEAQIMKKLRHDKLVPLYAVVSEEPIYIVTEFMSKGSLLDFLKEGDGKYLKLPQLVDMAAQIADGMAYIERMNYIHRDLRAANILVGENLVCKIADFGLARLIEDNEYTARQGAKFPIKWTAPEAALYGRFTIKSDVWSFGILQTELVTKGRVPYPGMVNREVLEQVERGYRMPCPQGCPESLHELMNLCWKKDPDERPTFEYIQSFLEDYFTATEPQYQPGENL
MAP3K2, sequence (Q9Y2U5 whole entry): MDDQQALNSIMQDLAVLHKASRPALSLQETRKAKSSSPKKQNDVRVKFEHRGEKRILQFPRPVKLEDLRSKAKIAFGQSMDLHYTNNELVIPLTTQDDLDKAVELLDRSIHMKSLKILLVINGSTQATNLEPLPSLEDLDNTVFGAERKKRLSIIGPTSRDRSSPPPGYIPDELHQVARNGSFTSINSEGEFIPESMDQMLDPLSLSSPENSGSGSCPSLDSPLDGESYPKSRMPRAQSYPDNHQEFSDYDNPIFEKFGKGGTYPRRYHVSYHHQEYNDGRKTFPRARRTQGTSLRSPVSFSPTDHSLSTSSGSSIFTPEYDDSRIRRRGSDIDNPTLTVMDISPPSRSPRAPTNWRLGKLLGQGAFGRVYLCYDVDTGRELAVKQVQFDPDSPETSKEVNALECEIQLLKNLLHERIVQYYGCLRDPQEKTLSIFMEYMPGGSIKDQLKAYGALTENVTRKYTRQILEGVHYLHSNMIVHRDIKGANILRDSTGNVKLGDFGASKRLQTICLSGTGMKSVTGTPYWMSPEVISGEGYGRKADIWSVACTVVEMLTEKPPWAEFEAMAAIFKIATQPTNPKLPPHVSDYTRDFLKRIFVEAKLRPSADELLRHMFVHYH
EGFR(S752-I759del), sequence (P00533 with tags, fused parts or gaps DEL752-759): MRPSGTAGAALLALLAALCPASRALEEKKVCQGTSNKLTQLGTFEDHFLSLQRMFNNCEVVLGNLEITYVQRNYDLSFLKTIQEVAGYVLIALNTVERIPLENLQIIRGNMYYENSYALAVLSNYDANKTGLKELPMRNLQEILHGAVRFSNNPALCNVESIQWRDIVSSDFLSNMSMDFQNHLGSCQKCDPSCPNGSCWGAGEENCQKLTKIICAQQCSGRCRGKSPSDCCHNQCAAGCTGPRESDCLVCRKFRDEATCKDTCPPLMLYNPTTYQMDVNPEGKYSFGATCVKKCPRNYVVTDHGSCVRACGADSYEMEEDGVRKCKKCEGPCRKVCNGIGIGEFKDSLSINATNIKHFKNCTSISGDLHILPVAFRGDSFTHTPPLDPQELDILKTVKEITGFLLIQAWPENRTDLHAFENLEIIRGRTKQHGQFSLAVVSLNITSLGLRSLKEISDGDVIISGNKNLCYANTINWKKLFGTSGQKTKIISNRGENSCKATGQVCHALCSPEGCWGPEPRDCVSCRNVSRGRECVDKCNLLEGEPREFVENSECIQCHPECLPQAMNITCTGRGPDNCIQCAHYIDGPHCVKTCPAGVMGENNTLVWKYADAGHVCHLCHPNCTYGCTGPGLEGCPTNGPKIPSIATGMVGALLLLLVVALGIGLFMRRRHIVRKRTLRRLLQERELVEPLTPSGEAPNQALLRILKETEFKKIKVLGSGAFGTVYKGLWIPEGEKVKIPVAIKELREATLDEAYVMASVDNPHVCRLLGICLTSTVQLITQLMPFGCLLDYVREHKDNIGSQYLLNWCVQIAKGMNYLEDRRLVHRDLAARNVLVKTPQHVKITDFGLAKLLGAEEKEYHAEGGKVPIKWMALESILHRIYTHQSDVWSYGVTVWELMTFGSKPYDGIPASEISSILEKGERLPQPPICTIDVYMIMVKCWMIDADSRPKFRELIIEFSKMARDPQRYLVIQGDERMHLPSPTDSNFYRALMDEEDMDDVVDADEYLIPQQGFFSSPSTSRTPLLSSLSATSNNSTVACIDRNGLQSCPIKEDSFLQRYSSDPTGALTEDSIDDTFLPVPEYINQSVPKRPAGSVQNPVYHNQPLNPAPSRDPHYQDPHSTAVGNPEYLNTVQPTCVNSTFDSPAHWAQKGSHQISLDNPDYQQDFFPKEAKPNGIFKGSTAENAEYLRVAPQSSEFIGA
T5 sequence (P45984 whole entry): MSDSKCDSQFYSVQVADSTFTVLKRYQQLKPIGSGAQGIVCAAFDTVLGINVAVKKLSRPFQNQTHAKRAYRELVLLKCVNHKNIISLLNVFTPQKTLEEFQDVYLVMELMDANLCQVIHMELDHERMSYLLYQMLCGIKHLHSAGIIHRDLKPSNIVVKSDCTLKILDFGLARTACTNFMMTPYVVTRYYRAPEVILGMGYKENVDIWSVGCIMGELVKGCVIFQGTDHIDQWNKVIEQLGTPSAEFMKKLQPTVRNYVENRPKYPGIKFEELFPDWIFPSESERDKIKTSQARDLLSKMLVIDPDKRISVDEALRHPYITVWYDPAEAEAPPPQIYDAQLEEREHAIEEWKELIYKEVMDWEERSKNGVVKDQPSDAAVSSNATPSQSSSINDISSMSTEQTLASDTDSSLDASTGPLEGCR

## Cc1ccc(NC(=O)c2cccc(C(F)(F)F)c2)cc1Nc1cc(-c2cccnc2)nc2[nH]ccc12 [HZX-02-059]
PIK3CA(E542K)
  remaining binding at 1 µM: 56%
ACVRL1
  remaining binding at 1 µM: 75%
EGFR(S752-I759del)
  remaining binding at 1 µM: 100%
TAOK3
  remaining binding at 1 µM: 100%
CSNK1E
  remaining binding at 1 µM: 97%
[1]
  remaining binding at 1 µM: 40%
FGFR4
  remaining binding at 1 µM: 91%
NEK7
  remaining binding at 1 µM: 73%
EPHB2
  remaining binding at 1 µM: 4.7%
GRK2
  remaining binding at 1 µM: 100%
YES
  remaining binding at 1 µM: 86%
ASK2
  remaining binding at 1 µM: 66%
KIT(V559D)
  remaining binding at 1 µM: 0.9%
EPHA7
  remaining binding at 1 µM: 66%
ADCK3
  remaining binding at 1 µM: 97%
JNK2
  remaining binding at 1 µM: 99%
FLT3(K663Q)
  remaining binding at 1 µM: 98%
TRKB
  remaining binding at 1 µM: 100%
PRKCH
  remaining binding at 1 µM: 90%
FLT3(D835V)
  remaining binding at 1 µM: 100%
MAP3K2
  remaining binding at 1 µM: 74%
EPHB3
  remaining binding at 1 µM: 48%
[2]
  remaining binding at 1 µM: 84%
FES
  remaining binding at 1 µM: 100%
